In general, Ki refers to a dissociation constant, usually derived from enzyme kinetics or from competition with a known ligand. One may read the IC50 as the concentration that gives 50% inhibition. The low end stands for inhibition by little substance, the high end for a need for much substance.

The values below come from ChEMBL document CHEMBL1127025, “(E)-3-[[[[6-(2-carboxyethenyl)-5-[[8-(4- methoxyphenyl)octyl]oxy]-2-pyridinyl]-methyl]thio]methyl]benzoic acid: a novel high-affinity leukotriene B4 receptor antagonist” (J Med Chem, 1993).

The target of assay [1] is T1, Leukotriene B4 receptor 1 (Homo sapiens, UniProt Q15722). The assay is described as follows: Binding affinity against LTB4 receptors in human PMNs.
Assay [2] addresses T1, Leukotriene B4 receptor 1. The assay is described as follows: Inhibitory concentration against LTB4 receptors in human PMNs.
For assay [3], the species on record is Mus musculus. The experiment in a line: Inhibition of LTB4-induced PMN infiltration at 250 ng/mL in mouse. The class given is functional.
In assay [4] the test system is Mus musculus. The assay is described as follows: Effective dose for edematous response after administration of 1 mg of arachidonic acid in mouse ear. The class given is functional.
For assay [5], the species on record is Homo sapiens. The assay is described as follows: Inhibitory concentration against LTB4 induced degranulation in human PMNs. The class given is functional.
The test system of assay [6] is Mus musculus. The assay is described as follows: Effective dose for neutrophil infiltration after administration of 1 mg of arachidonic acid in mouse ear. The class given is functional.

T1 sequence (Q15722 whole entry): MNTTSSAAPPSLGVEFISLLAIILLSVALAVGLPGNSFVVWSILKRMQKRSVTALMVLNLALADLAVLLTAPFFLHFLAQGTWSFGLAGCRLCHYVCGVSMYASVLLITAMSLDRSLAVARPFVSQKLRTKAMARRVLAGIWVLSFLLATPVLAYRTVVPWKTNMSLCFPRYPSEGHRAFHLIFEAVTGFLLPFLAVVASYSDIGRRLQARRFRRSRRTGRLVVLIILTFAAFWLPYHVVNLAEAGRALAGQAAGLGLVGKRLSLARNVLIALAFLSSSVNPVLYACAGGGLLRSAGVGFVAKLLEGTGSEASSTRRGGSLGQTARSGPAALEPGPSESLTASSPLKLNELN

In assay [1], `CCCCCCCCCCOc1ccc(CC(O)c2cccc(C(=O)O)c2)nc1/C=C/C(=O)O` (configuration not stated) returned a Ki of 0.28 µM.
Consider `COc1ccc(CCCCCCCCOc2ccc(CSCc3cccc(C(=O)O)c3)nc2/C=C/C(=O)O)cc1`, for which the IC50 in assay [2] stood at 0.131 µM; in assay [5], 0.268 µM. This molecule returned an inhibition constant (Ki) in assay [1] of 0.0071 µM. Further, the ED50 in assay [3] was 7.1 mg/kg; in assay [4] it was 0.58 mg ear-1; in assay [6], 0.39 mg ear-1.
